In one data set the test system is nasal epithelium. The experiment in a line: Permeation through the nasal epithelium with EDTA. The note with it: use of EDTA in the formulation. From the text: The nasal vestibule, which accounts for approximately 3-4% of the surface area of the nasal cavity, lacks tight junctions altogether and is thus not affected by calcium chelating agents. […] As such, it has been postulated that the nasal epithelium is not susceptible to permeability modulation by EDTA (Aungst, et al., Pharma. Res., 1998, 5:305-308). Additionally, the ability of EDTA to increase permeation of a compound through the nasal epithelium is attenuated as the molecular weight of the compound increases (Nakanishi, et al., Chem. Pharm. Bull., 1984, 32:1628-1632).

In data set [1] the test system is patients suffering from an episode of PSVT. The experiment in a line: Nasal administration of acetate salt solutions to patients in a PSVT episode, monitored by electrocardiography. The class given is in vivo, human. From the text: A common method of measuring the effectiveness of a therapeutic agent in terminating an episode of a cardiac arrhythmia, such as PSVT, is by analysis of an electrocardiogram (ECG) recorded from a patient experiencing such an episode. […] One of the key features of healthy cardiac signaling is a temporal delay between the initiation of atrial and ventricular action potentials. A delay between signaling in the atria and ventricles is necessary for efficient pumping of blood. Signaling in the atria must proceed first, such that all blood in the atrial chambers is expelled into the ventricles before the ventricles contract. […]
It has been shown that an increase of at least 10% in the PR segment of an […] recorded from a patient suffering from a cardiac arrhythmia correlates well with a termination of the PSVT episode. […] The solutions that were administered to patients contained varying concentrations of the acetate salt of compound I. During the study, a solution containing a particular concentration of the acetate salt of compound I was administered to a patient experiencing an episode of PSVT, and the patient was monitored by electrocardiography throughout the duration of the experiment. […]

Data set [2] can be described thus: Homogeneity (no observable precipitation) of concentrated aqueous solutions on storage. It is filed as physicochemical.
Data set [3] has as its system patients treated for an episode of PSVT. The note with it: intravenous; cited from earlier work.
Data set [4] is described as follows: Solubility in aqueous solution. The class given is physicochemical. The note with it: acid addition salts of compound I.
Data set [5] deals with patients suffering from an episode of PSVT. The note with it: therapeutic dose, intravenous; cited from earlier work.
The mark [6] stands for this setting: 300 mg/mL, 1 eq methanesulfonic acid, 10 mM sodium acetate, 5 mM disodium EDTA, pH 4.5.
Where [7] appears, read: 350 mg/mL, 1 eq acetic acid, pH 4.5 with 3.6 M sulfuric acid.
The mark [8] stands for this setting: 400 mg/mL, 1 eq methanesulfonic acid, 10 mM sodium acetate, 5 mM disodium EDTA, pH 4.5.

The values that follow come from patent US10117848B2, “Highly water-soluble salts of a short acting phenylalkylamine calcium channel blocker and uses thereof” (Milestone Pharmaceuticals Inc., priority 2015, dated 2018).

Molecules are shown by their SMILES.

On to `COC(=O)c1cccc(CCN(C)CCCC(C#N)(c2ccc(OC)c(OC)c2)C(C)C)c1` (stereo not shown) [compound I, methyl 3-(2-((4-cyano-4-(3,4-dimethoxyphenyl)-5-methylhexyl)(methyl)amino)ethyl)benzoate], for which the “permeation through the nasal epithelium” value in the data set with nasal epithelium was “increased the permeation”. In data set [1] (dosage containing 60 mg of compound I), the “effectiveness in terminating an episode of PSVT” value is on record as “therapeutically effective”. In addition, the “homogeneity at 2-5° C.” value in data set [2] (setting [6]) and in data set [2] (setting [8]) was “remains homogeneous” each time. The “homogeneity at room temperature” value is on record as “remains homogeneous” in data set [2] (setting [6]); “remains homogeneous” in data set [2] (setting [7]); “remains homogeneous” in data set [2] (setting [8]); “remain homogeneous” in data set [2] (highly concentrated solutions, 0.5-1.5 molar equivalents of acetic acid or methanesulfonic acid); “remains homogeneous” in data set [2] (over 500 mg/mL, 1 eq acetic acid, pH 4.5 with 3.6 M sulfuric acid). Moreover, the “time solution remains homogeneous at 0° C.” value in data set [2] (setting [6]) and in data set [2] (setting [8]) was “at least 7 days” each time. Also, the “time solution remains homogeneous at 10° C.” value in data set [2] (setting [7]) is listed as “at least 3 days”.

For the compound `OC[C@H]1O[C@@H](n2cnc3c(N[C@@H]4CCOC4)ncnc32)[C@H](O)[C@@H]1O` [tecadenoson], in data set [3], the “average PR prolongation” value was 8.5%, the “efficacy of PSVT termination” value was “approximately 86%” and the “patients treated who experienced relief from an episode of PSVT” value was 32 out of 37.

Regarding `CC(=O)O.COC(=O)c1cccc(CCN(C)CCC[C@@](C#N)(c2ccc(OC)c(OC)c2)C(C)C)c1` [acetate salt of compound I], the “solubility in aqueous solution” value in data set [4] is given as “high solubility”. For the same compound, the “median PR prolongation” value in data set [1] (solutions containing 60 mg or greater of compound I, patients experiencing a PSVT episode, ECG) is listed as “greater than 10%”.

Turning to `COc1ccc(CCN(C)CCCC(C#N)(c2ccc(OC)c(OC)c2)C(C)C)cc1OC` (stereo not shown) [verapamil, 2-(3,4-dimethoxyphenyl)-5-[2-(3,4-dimethoxyphenyl)ethyl-methylamino]-2-propan-2-ylpentanenitrile], in data set [5], the PR prolongation entry was “at least 10%” and the “efficacy for terminating the PSVT episode” value is on record as 85-90%.
